Measurements: PubChem BioAssay AID1919003 (Molecular Pharmacology Branch, DTP, NCI, 2023)
pIC50: −log10 of the molar value.

Tested on: 786-0 complex spheroids with HUVEC/MSC, growth % test/control
Test: Anticancer human tumor 786-0 cell line growth inhibition [AhR];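 note: compound exposure lasted seven days before the read-out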
Details: for pIC50: curve of first compound; for viability, T/C: stronger effect = lower value
Procedure, shortened: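 Spheroids combined tumor cells with HUVEC endothelial cells and human MSCs as stroma. AhR antagonists were paired with standard or investigational drugs, each dosed in half-log steps down from near clinical Cmax, or from 10 microM where Cmax was unknown.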

[1] = second compound 0.1 µM, first compound 0.00316 µM
[2] = second compound 0.1 µM, first compound 0.01 µM
[3] = second compound 0.1 µM, first compound 0.0316 µM
[4] = second compound 0.1 µM, first compound 0.1 µM
[5] = second compound 0.316 µM, first compound 0.00316 µM
[6] = second compound 0.316 µM, first compound 0.01 µM
[7] = second compound 0.316 µM, first compound 0.0316 µM
[8] = second compound 0.316 µM, first compound 0.1 µM
[9] = second compound 1 µM, first compound 0.00316 µM
[10] = second compound 1 µM, first compound 0.01 µM
[11] = second compound 1 µM, first compound 0.0316 µM
[12] = second compound 1 µM, first compound 0.1 µM
[13] = second compound 3.16 µM, first compound 0.00316 µM
[14] = second compound 3.16 µM, first compound 0.01 µM
[15] = second compound 3.16 µM, first compound 0.0316 µM
[16] = second compound 3.16 µM, first compound 0.1 µM
[17] = second compound 10 µM, first compound 0.00316 µM
[18] = second compound 10 µM, first compound 0.01 µM
[19] = second compound 10 µM, first compound 0.0316 µM
[20] = second compound 10 µM, first compound 0.1 µM
[21] = second compound 0.1 µM, first compound 0.316 µM
[22] = second compound 0.1 µM, first compound 1 µM
[23] = second compound 0.1 µM, first compound 3.16 µM
[24] = second compound 0.1 µM, first compound 10 µM
[25] = second compound 0.316 µM, first compound 0.316 µM
[26] = second compound 0.316 µM, first compound 1 µM
[27] = second compound 0.316 µM, first compound 3.16 µM
[28] = second compound 0.316 µM, first compound 10 µM
[29] = second compound 1 µM, first compound 0.316 µM
[30] = second compound 1 µM, first compound 1 µM
[31] = second compound 1 µM, first compound 3.16 µM
[32] = second compound 1 µM, first compound 10 µM
[33] = second compound 3.16 µM, first compound 0.316 µM
[34] = second compound 3.16 µM, first compound 1 µM
[35] = second compound 3.16 µM, first compound 3.16 µM
[36] = second compound 3.16 µM, first compound 10 µM
[37] = second compound 10 µM, first compound 0.316 µM
[38] = second compound 10 µM, first compound 1 µM
[39] = second compound 10 µM, first compound 3.16 µM
[40] = second compound 10 µM, first compound 10 µM

| SMILES | pIC50 (second compound 0.1 µM) | pIC50 (second compound 0.316 µM) | pIC50 (second compound 1 µM) | pIC50 (second compound 3.16 µM) | pIC50 (second compound 10 µM) | viability, T/C [3] [%] | viability, T/C [4] [%] | viability, T/C [7] [%] | viability, T/C [8] [%] | viability, T/C [11] [%] | viability, T/C [12] [%] | viability, T/C [15] [%] | viability, T/C [16] [%] | viability, T/C [19] [%] | viability, T/C [20] [%] | viability, T/C [21] [%] | viability, T/C [22] [%] | viability, T/C [25] [%] | viability, T/C [26] [%] | viability, T/C [29] [%] | other results |
| --- | --- | --- | --- | --- | --- | --- | --- | --- | --- | --- | --- | --- | --- | --- | --- | --- | --- | --- | --- | --- | --- |
| CC[C@@]1(O)C(=O)OCc2c1cc1n(c2=O)Cc2cc3c(CN(C)C)c(O)ccc3nc2-1 + Cc1cncc(-c2nc(NCCc3c[nH]c4ccccc34)c3ncn(C(C)C)c3n2)c1 | 7.21 | 7.19 | 7.25 | 7.55 | > 9.50 | 91.1 | 20.1 | 99 | 19.2 | 83.5 | 16 | 46.5 | 9.39 | 1.61 | 0.53 |  |  |  |  |  | viability, T/C (second compound 0.1 µM, first compound 0.000316 µM): 116%; viability, T/C (second compound 0.1 µM, first compound 0.001 µM): 118%; viability, T/C [1]: 117%; viability, T/C [2]: 115%; viability, T/C (second compound 0.316 µM, first compound 0.000316 µM): 113%; viability, T/C (second compound 0.316 µM, first compound 0.001 µM): 107%; viability, T/C [5]: 119%; viability, T/C [6]: 112%; viability, T/C (second compound 1 µM, first compound 0.000316 µM): 109%; viability, T/C (second compound 1 µM, first compound 0.001 µM): 109%; viability, T/C [9]: 103%; viability, T/C [10]: 108%; viability, T/C (second compound 3.16 µM, first compound 0.000316 µM): 73.4%; viability, T/C (second compound 3.16 µM, first compound 0.001 µM): 78.5%; viability, T/C [13]: 88.8%; viability, T/C [14]: 83%; viability, T/C (second compound 10 µM, first compound 0.000316 µM): 15.5%; viability, T/C (second compound 10 µM, first compound 0.001 µM): 11%; viability, T/C [17]: 11.8%; viability, T/C [18]: 4.85% |
| COc1cc(C2c3cc4c(cc3C(OC3OC5COC(C)OC5C(O)C3O)C3COC(=O)C23)OCO4)cc(OC)c1O (stereo not given) + Cc1cncc(-c2nc(NCCc3c[nH]c4ccccc34)c3ncn(C(C)C)c3n2)c1 | 5.94 | 5.89 | 5.88 | 6.35 | > 7.50 | 114 | 127 | 128 | 121 | 107 | 117 | 81.3 | 79.1 | 6.55 | 4.82 | 87 | 49.9 | 86.8 | 52.9 | 85.2 | viability, T/C [23]: 35.5%; viability, T/C [24]: 9.86%; viability, T/C [27]: 33.4%; viability, T/C [28]: 7.71%; viability, T/C [30]: 53.3%; viability, T/C [31]: 32.3%; viability, T/C [32]: 4.59%; viability, T/C [33]: 56.2%; viability, T/C [34]: 30.5%; viability, T/C [35]: 15.8%; viability, T/C [36]: 2.3%; viability, T/C [37]: 1.24%; viability, T/C [38]: 0.35%; viability, T/C [39]: 0.49%; viability, T/C [40]: 0.43% |
| COc1cccc2c1C(=O)c1c(O)c3c(c(O)c1C2=O)CC(O)(C(=O)CO)CC3OC1CC(N)C(O)C(C)O1 (stereo not given) + Cc1cncc(-c2nc(NCCc3c[nH]c4ccccc34)c3ncn(C(C)C)c3n2)c1 | 6.80 | 6.84 | 6.88 | > 7.50 | > 7.50 | 82.8 | 63.1 | 90 | 61.4 | 62.5 | 60.2 | 39.4 | 25.2 | 1.2 | 0.79 | 30.3 | 8.19 | 25.7 | 7.63 | 21.3 | viability, T/C [23]: 0.99%; viability, T/C [24]: 0.52%; viability, T/C [27]: 0.45%; viability, T/C [28]: 0.37%; viability, T/C [30]: 5.04%; viability, T/C [31]: 0.27%; viability, T/C [32]: 0.34%; viability, T/C [33]: 7.66%; viability, T/C [34]: 2.14%; viability, T/C [35]: 0.12%; viability, T/C [36]: 0.3%; viability, T/C [37]: 1.52%; viability, T/C [38]: 0.23%; viability, T/C [39]: 0.21%; viability, T/C [40]: 1.26% |
| Nc1ccn(C2OC(CO)C(O)C2(F)F)c(=O)n1 (stereo not given) + Cc1cncc(-c2nc(NCCc3c[nH]c4ccccc34)c3ncn(C(C)C)c3n2)c1 | > 7.50 | > 7.50 | > 7.50 | > 7.50 | > 7.50 | 6.61 | 6.32 | 7.89 | 7.93 | 6.44 | 6.22 | 2.07 | 1.87 | 0.4 | 0.29 | 4.8 | 5.2 | 6.11 | 6.04 | 6.31 | viability, T/C [23]: 8.48%; viability, T/C [24]: 7.97%; viability, T/C [27]: 7.74%; viability, T/C [28]: 6.69%; viability, T/C [30]: 5.01%; viability, T/C [31]: 6.11%; viability, T/C [32]: 5.37%; viability, T/C [33]: 3.18%; viability, T/C [34]: 1.68%; viability, T/C [35]: 3.27%; viability, T/C [36]: 7.69%; viability, T/C [37]: 0.24%; viability, T/C [38]: 0.33%; viability, T/C [39]: 0.61%; viability, T/C [40]: 0.37% |
| Nc1ncn(C2CC(O)C(CO)O2)c(=O)n1 (stereo not given) + Cc1cncc(-c2nc(NCCc3c[nH]c4ccccc34)c3ncn(C(C)C)c3n2)c1 | < 6.00 | < 6.00 | < 6.00 | < 6.00 | > 8.50 | 118 | 115 | 117 | 127 | 123 | 112 | 78.5 | 90.4 | 11.1 | 9.3 | 106 | 95.8 | 113 | 103 | 99 | viability, T/C [1]: 123%; viability, T/C [2]: 115%; viability, T/C [5]: 116%; viability, T/C [6]: 128%; viability, T/C [9]: 124%; viability, T/C [10]: 116%; viability, T/C [30]: 96.9%; viability, T/C [13]: 77.5%; viability, T/C [14]: 80.4%; viability, T/C [33]: 85.4%; viability, T/C [34]: 76.2%; viability, T/C [17]: 8.18%; viability, T/C [18]: 13.5%; viability, T/C [37]: 8.63%; viability, T/C [38]: 10.9% |
